Calls of active or inactive are those of the source. No cut-off for these calls is given here.
Key:
[1] = molecular target: T1, Glucocorticoid receptor (Homo sapiens) (UniProt P04150); experiment: Agonist activity at glucocorticoid receptor in human HeLa cells by dual-Glo luciferase assay; assay type: cell-based
T1 sequence (whole entry): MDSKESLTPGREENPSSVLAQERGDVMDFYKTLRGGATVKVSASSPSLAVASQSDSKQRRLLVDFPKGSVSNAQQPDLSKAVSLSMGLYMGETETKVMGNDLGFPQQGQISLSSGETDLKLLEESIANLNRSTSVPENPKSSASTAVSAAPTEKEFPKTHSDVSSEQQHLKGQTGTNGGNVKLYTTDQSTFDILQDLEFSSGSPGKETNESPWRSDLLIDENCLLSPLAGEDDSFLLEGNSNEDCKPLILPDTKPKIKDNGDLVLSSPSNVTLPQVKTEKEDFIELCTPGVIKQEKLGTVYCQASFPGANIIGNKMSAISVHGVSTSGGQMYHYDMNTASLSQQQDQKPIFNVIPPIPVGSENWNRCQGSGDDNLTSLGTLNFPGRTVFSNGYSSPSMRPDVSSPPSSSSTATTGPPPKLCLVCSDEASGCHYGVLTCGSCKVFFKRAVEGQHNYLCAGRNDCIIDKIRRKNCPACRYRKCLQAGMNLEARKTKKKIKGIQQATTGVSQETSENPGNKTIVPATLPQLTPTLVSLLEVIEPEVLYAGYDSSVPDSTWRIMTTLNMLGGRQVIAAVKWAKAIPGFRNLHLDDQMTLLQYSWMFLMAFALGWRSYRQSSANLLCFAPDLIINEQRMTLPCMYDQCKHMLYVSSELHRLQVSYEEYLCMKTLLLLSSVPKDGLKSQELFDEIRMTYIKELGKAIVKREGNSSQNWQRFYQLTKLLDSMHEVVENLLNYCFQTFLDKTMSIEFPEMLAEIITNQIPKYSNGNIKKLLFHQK

[2] = system: GES1; experiment: Cytotoxicity against human GES1 cells assessed as reduction in cell viability incubated for 72 hrs by MTT assay; assay type: cell-based; details: ges1, 72 h
[3] = system: LNCaP; experiment: Cytotoxicity against human LNCaP cells assessed as reduction in cell viability incubated for 72 hrs by MTT assay; assay type: functional, cell-based
[4] = system: MCF7; experiment: Cytotoxicity against human MCF7 cells assessed as reduction in cell viability at 50 uM incubated for 72 hrs by MTT assay; assay type: functional, cell-based
[5] = molecular target: T2, Androgen receptor (Homo sapiens) (UniProt P10275); experiment: Antagonist activity at androgen receptor in human LNCaP cells assessed as reduction in DHT-induced endogenous PSA level at 0.1 to 10 uM after 48 hrs by Western blot analysis; assay type: cell-based; details: filed as antagonist, dose 0.1-10 µM
T2 sequence (whole entry): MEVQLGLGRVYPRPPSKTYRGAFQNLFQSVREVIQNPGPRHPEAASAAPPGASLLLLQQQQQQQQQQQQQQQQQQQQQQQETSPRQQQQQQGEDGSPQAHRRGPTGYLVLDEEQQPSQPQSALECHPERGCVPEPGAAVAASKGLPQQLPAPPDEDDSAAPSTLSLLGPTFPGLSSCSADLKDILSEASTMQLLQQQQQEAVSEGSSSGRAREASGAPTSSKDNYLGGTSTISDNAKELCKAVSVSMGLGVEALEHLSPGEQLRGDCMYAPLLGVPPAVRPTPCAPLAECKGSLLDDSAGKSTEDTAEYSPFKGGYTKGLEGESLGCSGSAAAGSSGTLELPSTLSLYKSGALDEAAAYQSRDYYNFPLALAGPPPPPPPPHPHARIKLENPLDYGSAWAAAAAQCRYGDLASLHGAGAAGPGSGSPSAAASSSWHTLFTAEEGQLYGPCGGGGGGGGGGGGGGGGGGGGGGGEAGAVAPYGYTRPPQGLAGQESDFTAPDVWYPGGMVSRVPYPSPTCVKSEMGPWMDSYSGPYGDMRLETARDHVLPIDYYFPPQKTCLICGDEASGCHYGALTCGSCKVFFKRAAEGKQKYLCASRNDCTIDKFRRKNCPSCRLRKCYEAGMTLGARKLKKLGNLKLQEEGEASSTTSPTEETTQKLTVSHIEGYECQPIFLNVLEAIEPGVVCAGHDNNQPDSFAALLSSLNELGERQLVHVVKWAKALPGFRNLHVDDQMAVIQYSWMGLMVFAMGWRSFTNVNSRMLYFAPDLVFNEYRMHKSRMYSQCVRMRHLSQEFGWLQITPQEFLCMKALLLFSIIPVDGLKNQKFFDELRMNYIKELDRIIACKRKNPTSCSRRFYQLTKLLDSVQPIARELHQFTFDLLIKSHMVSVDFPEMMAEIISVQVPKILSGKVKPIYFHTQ

[6] = molecular target: T3, Androgen receptor (Homo sapiens, UniProt P10275)
T3 sequence (P10275 whole entry): T2 sequence (whole entry)
Description: Binding affinity to GST-tagged AR ligand binding domain (unknown origin) measured after 4 hrs by fluorescence polarization assay

[7] = molecular target: T2, Androgen receptor (Homo sapiens); experiment: Antagonist activity at androgen receptor in human LNCaP cells assessed as reduction in DHT-induced secreted PSA level; assay type: cell-based; details: filed as antagonist, dose 0.1-10 µM, time 48.0 hrs
[8] = system: LNCaP C4-2; experiment: Cytotoxicity against human C4-2 cells assessed as reduction in cell viability incubated for 72 hrs by MTT assay; assay type: functional, cell-based
[9] = Cytotoxicity against human chang cells assessed as reduction in cell viability at 50 uM incubated for 72 hrs by MTT assay; assay type: cell-based; details: chang liver
[10] = system: LNCaP; experiment: Inhibition of colony formation in human LANCaP cells after 2 weeks by crystal violet staining based assay; assay type: functional, cell-based; details: dose 2-20 µM

Question: With O=c1cc(C(F)(F)F)c2ccc(OCc3ccc(Br)cc3)cc2o1 as the compound, how does the Activity [1] read?
Answer: The Activity was “inactive”.

Question: What about the Activity [2] of the same compound?
Answer: The Activity was “Non-Toxic”.

Question: And the Activity [3]?
Answer: The Activity was “Active”.

Question: And the Activity [4]?
Answer: Its Activity is “Active”.

Question: And the Activity [5]?
Answer: Its Activity is “Active”.

Question: What about the IC50 [6] of the same compound?
Answer: The IC50 was 0.75 µM.

Question: And the Activity [7]?
Answer: The Activity was “Dose-dependent effect”.

Question: And the Activity [8]?
Answer: The Activity was “Active”.

Question: What about the Activity [9] of the same compound?
Answer: The Activity was “Non-Toxic”.

Question: And the inhibition [10]?
Answer: Its inhibition is “Dose-dependent effect”.

Source: ChEMBL document CHEMBL5055679, “Discovery of a Novel Androgen Receptor Antagonist Manifesting Evidence to Disrupt the Dimerization of the Ligand-Binding Domain via Attenuating the Hydrogen-Bonding Network Between the Two Monomers” (J Med Chem, 2021)
